Reference: the OligoGym collection
HELM strings list units from the 5' end as sugar, base in round brackets, then linkage (d deoxyribose, r ribose, m 2'-O-methyl, p phosphodiester). Strings are as the collection lists them, not checked against the first reports. ss, as = sense and antisense strand

Settings: siRNA
Note: test system not given here.

Substance	target mRNA knockdown [%]
RNA1{r(A)p.m(C)p.m(A)p.r(G)p.r(A)p.r(A)p.r(A)p.r(G)p.m(A)p.r(G)p.r(U)p.r(U)p.r(C)p.r(G)p.r(A)p.r(G)p.r(G)p.r(A)p.r(G)p.r(T)p.r(T)}|RNA2{r(C)p.r(U)p.r(C)p.r(C)p.r(U)p.r(C)p.r(G)p.r(A)p.r(A)p.r(C)p.r(U)p.r(C)p.r(U)p.r(U)p.r(U)p.r(C)p.m(U)p.r(G)p.r(U)p.r(T)p.r(T)}$$$RNA1{StrandType:ss}|RNA2{StrandType:as}$	61
RNA1{r(A)p.m(C)p.m(C)p.m(U)p.m(U)p.m(U)p.m(C)p.m(C)p.r(A)p.m(C)p.m(U)p.m(U)p.m(C)p.m(U)p.r(A)p.r(A)p.r(G)p.m(C)p.m(C)p.r(T)p.r(T)}|RNA2{r(G)p.r(G)p.r(C)p.r(U)p.r(U)p.r(A)p.r(G)p.r(A)p.r(A)p.r(G)p.r(U)p.r(G)p.r(G)p.r(A)p.r(A)p.r(A)p.r(G)p.r(G)p.r(U)p.r(T)p.r(T)}$$$RNA1{StrandType:ss}|RNA2{StrandType:as}$	75
RNA1{r(A)p.m(C)p.r(A)p.r(G)p.r(A)p.r(A)p.r(A)p.r(G)p.r(A)p.r(G)p.r(U)p.r(U)p.r(C)p.r(G)p.r(A)p.r(G)p.r(G)p.r(A)p.r(G)p.r(T)p.r(T)}|RNA2{r(C)p.r(U)p.r(C)p.r(C)p.r(U)p.r(C)p.r(G)p.r(A)p.r(A)p.r(C)p.r(U)p.r(C)p.r(U)p.r(U)p.r(U)p.r(C)p.m(U)p.r(G)p.r(U)p.r(T)p.r(T)}$$$RNA1{StrandType:ss}|RNA2{StrandType:as}$	64
RNA1{r(A)p.m(G)p.r(A)p.m(U)p.r(G)p.m(U)p.m(U)p.m(C)p.m(U)p.m(C)p.r(G)p.m(U)p.r(A)p.r(A)p.m(G)p.r(G)p.r(A)p.m(C)p.r(G)p.r(T)p.r(T)}|RNA2{r(C)p.r(G)p.r(U)p.r(C)p.r(C)p.r(U)p.r(U)p.r(A)p.r(C)p.r(G)p.r(A)p.r(G)p.r(A)p.r(A)p.r(C)p.r(A)p.r(U)p.r(C)p.r(U)p.r(T)p.r(T)}$$$RNA1{StrandType:ss}|RNA2{StrandType:as}$	53
RNA1{r(A)p.m(U)p.m(C)p.r(G)p.r(A)p.m(C)p.m(C)p.m(U)p.r(G)p.r(A)p.r(A)p.r(G)p.r(G)p.r(A)p.r(G)p.m(U)p.r(A)p.m(C)p.r(G)p.r(T)p.r(T)}|RNA2{m(C)p.r(G)p.m(U)p.r(A)p.m(C)p.m(U)p.m(C)p.m(C)p.m(U)p.m(U)p.m(C)p.r(A)p.r(G)p.r(G)p.m(U)p.m(C)p.r(G)p.r(A)p.m(U)p.r(T)p.r(T)}$$$RNA1{StrandType:ss}|RNA2{StrandType:as}$	19
RNA1{r(A)p.m(U)p.r(A)p.r(C)p.r(U)p.m(U)p.m(G)p.r(G)p.r(C)p.r(G)p.r(G)p.r(G)p.m(C)p.r(U)p.r(C)p.r(U)p.r(U)p.r(U)p.r(C)p.r(T)p.r(T)}|RNA2{r(G)p.r(A)p.r(A)p.r(A)p.r(G)p.r(A)p.r(G)p.r(C)p.r(C)p.r(C)p.r(G)p.r(C)p.m(C)p.r(A)p.r(A)p.r(G)p.m(U)p.r(A)p.r(U)p.r(T)p.r(T)}$$$RNA1{StrandType:ss}|RNA2{StrandType:as}$	70
RNA1{r(A)p.m(U)p.r(A)p.r(C)p.r(U)p.m(U)p.r(G)p.r(G)p.r(C)p.m(G)p.r(G)p.r(G)p.r(C)p.r(U)p.r(C)p.r(U)p.r(U)p.r(U)p.r(C)p.r(T)p.r(T)}|RNA2{r(G)p.r(A)p.r(A)p.r(A)p.r(G)p.r(A)p.r(G)p.r(C)p.r(C)p.r(C)p.r(G)p.r(C)p.m(C)p.r(A)p.r(A)p.r(G)p.m(U)p.r(A)p.r(U)p.r(T)p.r(T)}$$$RNA1{StrandType:ss}|RNA2{StrandType:as}$	42
RNA1{r(A)p.m(U)p.r(A)p.r(C)p.r(U)p.r(U)p.r(G)p.r(G)p.r(C)p.r(G)p.r(G)p.r(G)p.r(C)p.r(U)p.r(C)p.r(U)p.r(U)p.r(U)p.r(C)p.r(T)p.r(T)}|RNA2{r(G)p.r(A)p.r(A)p.r(A)p.r(G)p.r(A)p.r(G)p.r(C)p.r(C)p.r(C)p.r(G)p.r(C)p.r(C)p.r(A)p.r(A)p.r(G)p.r(U)p.r(A)p.r(U)p.r(T)p.r(T)}$$$RNA1{StrandType:ss}|RNA2{StrandType:as}$	48
RNA1{r(A)p.m(U)p.r(G)p.r(G)p.r(G)p.r(A)p.r(G)p.r(A)p.r(A)p.r(G)p.m(U)p.r(A)p.r(G)p.r(U)p.r(C)p.r(C)p.r(C)p.r(C)p.r(C)p.r(T)p.r(T)}|RNA2{r(G)p.r(G)p.r(G)p.r(G)p.r(G)p.r(A)p.r(C)p.m(U)p.r(A)p.r(C)p.r(U)p.r(U)p.r(C)p.r(U)p.r(C)p.r(C)p.m(C)p.r(A)p.r(U)p.r(T)p.r(T)}$$$RNA1{StrandType:ss}|RNA2{StrandType:as}$	82
RNA1{r(A)p.r(A)p.m(C)p.m(C)p.m(C)p.r(A)p.r(A)p.r(A)p.r(G)p.r(G)p.r(G)p.r(G)p.r(A)p.r(G)p.r(U)p.r(U)p.r(G)p.m(C)p.r(U)p.r(T)p.r(T)}|RNA2{m(A)p.r(G)p.m(C)p.r(A)p.m(A)p.r(C)p.m(U)p.r(C)p.m(C)p.r(C)p.m(C)p.r(U)p.m(U)p.r(U)p.m(G)p.r(G)p.m(G)p.r(U)p.m(U)p.r(T)p.r(T)}$$$RNA1{StrandType:ss}|RNA2{StrandType:as}$	37
RNA1{r(A)p.r(A)p.m(C)p.r(A)p.r(G)p.r(C)p.r(C)p.r(U)p.m(U)p.r(A)p.r(C)p.r(C)p.r(C)p.r(C)p.r(G)p.r(A)p.r(U)p.r(U)p.r(C)p.r(T)p.r(T)}|RNA2{r(G)p.r(A)p.r(A)p.r(U)p.r(C)p.r(G)p.r(G)p.r(G)p.r(G)p.m(U)p.r(A)p.r(A)p.r(G)p.r(G)p.r(C)p.m(U)p.r(G)p.r(U)p.r(U)p.r(T)p.r(T)}$$$RNA1{StrandType:ss}|RNA2{StrandType:as}$	68
RNA1{r(A)p.r(A)p.m(C)p.r(A)p.r(G)p.r(U)p.r(C)p.r(C)p.r(U)p.m(U)p.r(A)p.r(G)p.r(C)p.m(U)p.r(A)p.r(C)p.r(G)p.r(C)p.m(U)p.r(T)p.r(T)}|RNA2{r(A)p.r(G)p.r(C)p.r(G)p.m(U)p.r(A)p.r(G)p.r(C)p.m(U)p.r(A)p.r(A)p.r(G)p.r(G)p.r(A)p.r(C)p.m(U)p.r(G)p.r(U)p.r(U)p.r(T)p.r(T)}$$$RNA1{StrandType:ss}|RNA2{StrandType:as}$	85
RNA1{r(A)p.r(A)p.m(C)p.r(U)p.m(C)p.r(U)p.r(A)p.m(C)p.r(U)p.r(G)p.r(U)p.r(G)p.r(G)p.r(A)p.r(G)p.r(U)p.m(C)p.r(G)p.r(G)p.r(T)p.r(T)}|RNA2{m(C)p.m(C)p.r(G)p.r(A)p.m(C)p.r(U)p.m(C)p.m(C)p.r(A)p.m(C)p.r(A)p.r(G)p.r(U)p.r(A)p.r(G)p.r(A)p.r(G)p.r(U)p.r(U)p.r(T)p.r(T)}$$$RNA1{StrandType:ss}|RNA2{StrandType:as}$	57
RNA1{r(A)p.r(A)p.m(U)p.r(A)p.r(A)p.r(G)p.m(C)p.r(A)p.r(G)p.r(C)p.r(U)p.r(C)p.r(G)p.m(C)p.r(G)p.r(C)p.r(U)p.r(C)p.r(C)p.r(T)p.r(T)}|RNA2{r(G)p.r(G)p.r(A)p.r(G)p.r(C)p.r(G)p.r(C)p.r(G)p.r(A)p.r(G)p.r(C)p.m(U)p.r(G)p.r(C)p.r(U)p.m(U)p.r(A)p.r(U)p.r(U)p.r(T)p.r(T)}$$$RNA1{StrandType:ss}|RNA2{StrandType:as}$	51
RNA1{r(A)p.r(A)p.m(U)p.r(A)p.r(A)p.r(G)p.m(C)p.r(A)p.r(G)p.r(C)p.r(U)p.r(C)p.r(G)p.r(C)p.r(G)p.r(C)p.r(U)p.r(C)p.r(C)p.r(T)p.r(T)}|RNA2{r(G)p.r(G)p.r(A)p.r(G)p.r(C)p.r(G)p.r(C)p.r(G)p.r(A)p.r(G)p.r(C)p.m(U)p.r(G)p.r(C)p.m(U)p.r(U)p.r(A)p.r(U)p.r(U)p.r(T)p.r(T)}$$$RNA1{StrandType:ss}|RNA2{StrandType:as}$	68
